Data: paper PMC12028158, “Synthesis and In Vitro Evaluation of the Anticancer Effect of Novel Phosphonium Vindoline Derivatives” (International Journal of Molecular Sciences, 2025)
“Also recorded” adds a separate entry of the source. Where two headings read alike, the source gives them in different places.

Tests used:
SiHa = assay: MTT antiproliferative assay; type: cell-based, human; settings: SiHa, 72 h; for inhibition at 10 µM / inhibition at 30 µM: Homo sapiens
Description: (§1) The antiproliferative properties of the tested compounds were additionally determined using the MTT assay against a panel of human adherent cancer cell lines isolated from breast (MCF-7 and MDA-MB-231), cervical (HeLa and SiHa), and ovarian (A2780) tumors and also on the NIH/3T3 fibroblast cell line (Table 3). IC50 values were calculated from a wider concentration range (0.1–30 μM) when higher than 50% cell growth inhibition was obtained at 10 μM (Table 4). Cisplatin was used as a reference compound. […] The noncancerous fibroblast cell line NIH/3T3 was used to gather preliminary data regarding the cancer selectivity of vindolin derivatives. […] The tumor selectivity of compound 9g, expressed as the ratio of IC50 on cancer cells and fibroblasts, is substantially higher than that of cisplatin (Table 4).
(§2) The antiproliferative effects of the prepared derivatives were evaluated in vitro using the MTT assay against a panel of human adherent cancer cell lines, including breast (MDA-MB-231, MCF-7), cervical (SiHa, HeLa), and ovarian (A2780) cancer cells. The noncancerous fibroblast cell line NIH/3T3 was included to obtain data concerning the tumor selectivity of the test substances. All cell lines were sourced from the European Collection of Cell Cultures (Salisbury, UK), except for SiHa (American Tissue Culture Collection (Manassas, VA, USA). All cell lines were maintained in Eagle’s Minimal Essential Medium (EMEM) supplemented with 10% fetal bovine serum (FBS), 1% non-essential amino acids, and a mixture of penicillin, streptomycin, and amphotericin B. The cells were maintained in a humidified atmosphere containing 5% CO2 at 37 °C. The media and the cell culture supplements were procured from Capricorn Scientific Ltd. (Ebsdorfergrund, Germany). Cells were seeded into 96-well microplates at 5000/well and, the next day, treated with vindoline derivatives at two concentrations (10 or 30 μM) for 72 h under cell culturing conditions. […] When higher than 50% cell growth inhibition was observed, the assay was repeated using a wide concentration range (0.1–30 μM). The IC50 values were calculated using GraphPad Prism software 10.3.1 (GraphPad Software, San Diego, CA, USA). Two independent experiments were performed with at least five replicates per condition.

[1] = system: 60 human tumor cell lines (NCI60); set-up: method as in PMID 39063170; settings: previous work; cited from earlier work
[2] = system: panel of human adherent cancer cell lines; assay: MTT antiproliferative assay, whole cancer panel; type: cell-based; settings: for anticancer activity / cytotoxic effect (in words): MTT panel
Description: as §1, §2

A2780 = assay: MTT antiproliferative assay; type: cell-based, human; settings: Homo sapiens, 72 h, 72 h; for inhibition at 10 µM: A2780, 10 μM; for inhibition at 30 µM: A2780, 30 μM, read-out: Growth Inhibition (%) ± SEM (converted)
Description: as §1, §2

MDA-MB-231 = assay: MTT antiproliferative assay; type: cell-based, human; settings: Homo sapiens, 72 h, 72 h; for inhibition at 10 µM: MDA-MB-231, 10 μM; for inhibition at 30 µM: MDA-MB-231, 30 μM
Description: as §1, §2

MCF-7 = assay: MTT antiproliferative assay; type: cell-based, human; settings: Homo sapiens, MCF7, 72 h; for inhibition at 30 µM: MCF-7, 30 μM, read-out: Growth Inhibition (%) ± SEM (converted)
Description: as §1, §2

HeLa = assay: MTT antiproliferative assay; type: cell-based, human; settings: Homo sapiens, HeLa, 72 h; for inhibition at 10 µM: read-out: Growth Inhibition (%) ± SEM; for inhibition at 30 µM: read-out: Growth Inhibition (%) ± SEM (converted)
Description: as §1, §2

NIH/3T3 (fibroblast) = assay: MTT antiproliferative assay; type: cell-based; settings: Mus musculus, 72 h; for inhibition at 10 µM: NIH3T3, 10 μM, read-out: Growth Inhibition (%) ± SEM; for inhibition at 30 µM: NIH3T3, 30 μM, read-out: Growth Inhibition (%) ± SEM (converted)
Description: as §1, §2

[3] = heading: Growth Inhibition ± SEM
[4] = read-out: Growth Inhibition (%) ± SEM
[5] = read-out: Growth Inhibition (%) ± SEM (converted)

**Q.** With N.N.[Cl][Pt][Cl] [Cisplatin, reference compound] as the compound, how does the IC50 (SiHa; MTT, read-out: IC50 Value (μM) ± SEM) read?
**A.** 15.5 ± 0.93 µM

**Q.** For CCC12C=CCN3CCC4(c5ccc(OC)cc5N(C)C4C(O)(C(=O)OC)C1O)C32 (centres unmarked) [compound 6, 17-desacetylvindoline], which “antiproliferative effects (in words)” value [1] is on record?
**A.** do not exert antiproliferative effects

**Q.** For CCC12C=CCN3CCC4(c5ccc(OC)cc5N(C)C4C(O)(C(=O)OC)C1OC(=O)CCCBr)C32 (centres unmarked) [compound 7, 17-(O-4-bromobutanoyl)vindoline], which “antiproliferative effects (in words)” value [1] is on record?
**A.** do not exert antiproliferative effects

**Q.** Which results are given for CC[C@]12C=CCN3CC[C@@]4(c5ccc(OC)cc5N(C)[C@H]4[C@@](O)(C(=O)OC)[C@@H]1OC(=O)CC(c1ccccc1)(c1ccccc1)c1ccccc1)[C@@H]32 [compound 13, 17-(O-3,3,3-Triphenylpropanoyl)vindoline]?
**A.** anticancer activity / cytotoxic effect (in words) [2]: no cytotoxic effect; antiproliferative effect (in words) ([2]; even at 30 μM): modest or negligible effect; inhibition at 10 µM (A2780; [3]): < 10%; inhibition at 30 µM (A2780): 11.9%; inhibition at 10 µM (MDA-MB-231; [3]): < 10%; inhibition at 30 µM (MDA-MB-231; [3]): < 10%; inhibition at 10 µM (SiHa; [3]): < 10%; inhibition at 30 µM (SiHa; [3]): < 10%; inhibition at 30 µM (MCF-7): 20.8%; inhibition at 10 µM (HeLa): 39.9 ± 2.57%; inhibition at 30 µM (HeLa): 40.1%; inhibition at 10 µM (NIH/3T3 (fibroblast)): 26.1 ± 1.55%; inhibition at 30 µM (NIH/3T3 (fibroblast)): 22.1%

**Q.** Which results are given for CC[C@]12C=CCN3CC[C@@]4(c5cc(NC(=O)C[P+](c6ccccc6)(c6ccccc6)c6ccccc6)c(OC)cc5N(C)[C@H]4[C@@](O)(C(=O)OC)[C@@H]1OC(C)=O)[C@@H]32 [compound 16]?
**A.** anticancer activity / cytotoxic effect (in words) [2]: no cytotoxic effect; also recorded: no remarkable anticancer activity; inhibition at 10 µM (A2780; [4]): 19.4 ± 0.64%; inhibition at 30 µM (A2780): 29.5%; inhibition at 10 µM (MDA-MB-231; [4]): 12.64 ± 0.03%; inhibition at 30 µM (MDA-MB-231; [5]): 13.5%; inhibition at 10 µM (SiHa; [4]): 15 ± 0.34%; inhibition at 30 µM (SiHa; [5]): 36.8%; inhibition at 10 µM (MCF-7; MCF-7, 10 μM, read-out: Growth Inhibition (%) ± SEM): 31.1 ± 3.1%; inhibition at 30 µM (MCF-7): 47.1%; inhibition at 10 µM (HeLa): 21.7 ± 0.84%; inhibition at 30 µM (HeLa): 30%; inhibition at 10 µM (NIH/3T3 (fibroblast)): 24.9 ± 0.78%; inhibition at 30 µM (NIH/3T3 (fibroblast)): 27.5%
